Source: patent US5710179A, “Antitumor agent” (priority 1995, dated 1998)
Counter-ions that a name gives are not always drawn.

Experiments:
[1] = system: Meth A sarcoma; assay: Antitumor activity on mouse with carcinoma (Meth A sarcoma, i.p., 40 days); format: in vivo, BALB/c male mice; details: for Average day surviving: 40 days, control 28.1 ± 0.2; for Prolongation percentage of life (T/C %): control 100; for Number surviving after 40 days: group of 10, control 0
Experimental: About 1×10^6 cells/mouse of Meth A sarcoma was intraperitoneally injected into 8-week-old BALB/c male mice. From the next day after the administration, mice in a group of 10 were intraperitoneally injected twice a week with 0.2 ml of a physiological saline containing 0.0005, 0.005, 0.05 or 0.5 μg of any one of the compounds 1-5, and observed for 40 days. As a control, 0.2 ml/mouse/shot of physiological saline free of the compounds 1-5 was intraperitoneally injected to other groups of mice similarly as above.
Based on the data of the average day surviving (T) in the Groups of mice with the compounds 1-5 and the average day surviving (C) in the control group of mice, the prolongation percentage of life (T/C %) was calculated by the formula 1. [formula]

[2] = system: human malignant tumors; details: Foods & Food Ingredients Journal of Japan, Vol.160 (1994); cited from earlier work
[3] = system: KB cell (rhinopharynx cancer); assay: Inhibition of tumor growth in nude mice, KB; format: in vivo, human; details: 0.05 μg/mouse s.c. twice a week
[4] = system: Hep-2 cell (thyroid gland cancer); assay: Inhibition of tumor growth in nude mice, Hep-2; format: in vivo, human; details: 0.05 μg/mouse s.c. twice a week
[5] = system: HLC-1 cell (lung cancer); assay: Inhibition of tumor growth in nude mice, HLC-1; format: in vivo, human; set-up: Average tumor weight, on a wet cell basis: unit not given here; details: 0.05 μg/mouse s.c. twice a week
[6] = system: G-361 cell (malignant melanoma); assay: Inhibition of tumor growth in nude mice, G-361; format: in vivo, human; details: 0.05 μg/mouse s.c. twice a week
[7] = system: HeLa cell (uterine cancer); assay: Inhibition of tumor growth in nude mice, HeLa; format: in vivo, human; details: 0.05 μg/mouse s.c. twice a week
[8] = system: human malignant tumors; assay: Antitumor activity by the inhibition of tumor growth, nude mice, summary over human tumors; format: in vivo; details: 0.05 μg s.c. twice a week
Experimental: Based on the data of Experiment 2, a minimum dose of the compounds 1-5 to a nude mouse was estimated to be about 0.05 μg/mouse/shot, and the antitumor activity of the compounds 1-5 was tested by administering them at the above dose to nude mice transplanted with human malignant tumors.
Thereafter mice, observed the tumor cells' insertion, were grouped in a group of 7 mice, then administered twice a week with 0.2 ml of a physiological saline containing 0.05 μg of the compound 2 to the dorsal subcutaneous tissues, and observed for 25 days. As a control, mice in other group were administered in the same administration schedule with 0.2 ml/shot of physiological saline free of the compound 2.
On the 27th day after the transplantation, tumor masses formed in the nude mice were extracted and weighed, on a wet cell basis, according to the method as disclosed by Y. Shimosato and N. Tamaoki in "Jingan-to-Nude-mouse (Human Cancer and Nude Mice)", pp. 321-323 (1982), published by Ishiyaku Publishers, Inc., Tokyo, Japan, and the percentage surviving (%) on the 35th day after the transplantation was calculated.

[9] = system: Hep G2 cell (cancer of liver); assay: Inhibition of tumor growth in nude mice, Hep G2; format: in vivo, human; details: 0.05 μg/mouse s.c. twice a week
[10] = system: HL-60 cell (leukemia); assay: Inhibition of tumor growth in nude mice, HL-60; format: in vivo, human; details: 0.05 μg/mouse s.c. twice a week
[11] = system: RPMI 4788 cell (colon cancer); assay: Inhibition of tumor growth in nude mice, RPMI 4788; format: in vivo, human; details: 0.05 μg/mouse s.c. twice a week
[12] = system: U-937 cell (lymphoma); assay: Inhibition of tumor growth in nude mice, U-937; format: in vivo, human; details: 0.05 μg/mouse s.c. twice a week
[13] = system: WiDr cell (rectum cancer); assay: Inhibition of tumor growth in nude mice, WiDr; format: in vivo, human; details: 0.05 μg/mouse s.c. twice a week
[14] = system: HGC-27 cell (gastric cancer); assay: Inhibition of tumor growth in nude mice, HGC-27; format: in vivo, human; details: 0.05 μg/mouse s.c. twice a week
[15] = 0.0005 μg/0.2 ml/mouse i.p. twice a week
[16] = 0.005 μg/0.2 ml/mouse i.p. twice a week
[17] = 0.05 μg/0.2 ml/mouse i.p. twice a week
[18] = 0.05 μg/0.2 ml/mouse i.p. twice a week, all marked * (significant, 5% level or lower vs control)
[19] = 0.5 μg/0.2 ml/mouse i.p. twice a week
[20] = 0.5 μg/0.2 ml/mouse i.p. twice a week, all marked * (significant, 5% level or lower vs control)

In the case of `CC(C)=CCc1cc(/C=C/C(=O)O)cc(CC=C(C)C)c1O` [compound 3, calcium salt of 3-[4-hydroxy-3,5-bis(3-methyl-2-butenyl)phenyl]-2-propenoic acid], the Average day surviving [1, 15] is reported as 31.1 ± 0.6 days, the “Prolongation percentage of life (T/C %)” value [1, 15] is reported as 110.7% and the “Number surviving after 40 days” value [1, 15] is reported as 2. For the same compound, the Average day surviving [1, 16] was 35.9 ± 0.3 days, the “Prolongation percentage of life (T/C %)” value [1, 16] was 127.8% and the “Number surviving after 40 days” value [1, 16] was 6. The Average day surviving [1, 17] was 38.9 ± 0.2 days, the “Prolongation percentage of life (T/C %)” value [1, 18] was 138.4% and the “Number surviving after 40 days” value [1, 17] was 8. The Average day surviving [1, 19] was 39.0 ± 0.2 days, the “Prolongation percentage of life (T/C %)” value [1, 20] was 138.8% and the “Number surviving after 40 days” value [1, 19] was 9.

In the case of `O=C(/C=C/c1ccc(O)c(O)c1)OCCc1ccccc1` [caffeic acid phenethyl ester], the “antitumor activity on human malignant tumors” value [2] is given as “exerted an antitumor activity”.

With `CC(C)=CCc1cc(/C=C/C(=O)O)cc(CC=C(C)C)c1O` [compound 2, sodium salt of 3-[4-hydroxy-3,5-bis(3-methyl-2-butenyl)phenyl]-2-propenoic acid] the “Average tumor weight, on a wet cell basis” value (from here on “Average tumor weight”) ([3]; 27th day after transplantation, control 2.12 ± 0.96, in g (unit assumed)) was 0.54 ± 0.03, the “Percentage surviving at judgement (%)” value ([3]; 35th day, control 42.8) was 100% and the “Average tumor weight” value ([4]; 27th day after transplantation, control 2.16 ± 1.31, in g (unit assumed)) was 0.81 ± 0.65. The “Percentage surviving at judgement (%)” value ([4]; 35th day, control 42.8) was 100%, the “Average tumor weight” value ([5]; 27th day after transplantation, control 1.25 ± 0.81) was 0.124 ± 0.06 and the “Percentage surviving at judgement (%)” value ([5]; 35th day, control 71.4) was 100%. The “Average tumor weight” value ([6]; 27th day after transplantation, control 1.96 ± 0.98, in g (unit assumed)) was 0.36 ± 0.02, the “Percentage surviving at judgement (%)” value ([6]; 35th day, control 57.1) was 100% and the Average day surviving [1, 15] was 32.3 ± 0.8 days. The “Prolongation percentage of life (T/C %)” value [1, 15] was 114.9%, the “Number surviving after 40 days” value [1, 15] was 2 and the Average day surviving [1, 16] was 36.5 ± 0.5 days. The “Prolongation percentage of life (T/C %)” value [1, 16] was 129.9%, the “Number surviving after 40 days” value [1, 16] was 6 and the Average day surviving [1, 17] was 38.1 ± 0.1 days. The “Prolongation percentage of life (T/C %)” value [1, 18] was 135.6%, the “Number surviving after 40 days” value [1, 17] was 8 and the Average day surviving [1, 19] was over 40.0 days. For the same compound, the “Prolongation percentage of life (T/C %)” value [1, 20] was 142.3%, the “Number surviving after 40 days” value [1, 19] was 10 and the “Average tumor weight” value ([7]; 27th day after transplantation, control 1.36 ± 0.61, in g (unit assumed)) was 0.54 ± 0.06. For the same compound, the “Percentage surviving at judgement (%)” value ([7]; 35th day, control 100) was 100%, the “antitumor effect on human malignant tumors” value [8] was “strong antitumor effect” and the “percentage surviving on the 35th day after the transplantation” value [8] was “attained a desired percentage surviving”. The “Average tumor weight” value ([9]; 27th day after transplantation, control 2.06 ± 0.85, in g (unit assumed)) was 0.18 ± 0.02, the “Percentage surviving at judgement (%)” value ([9]; 35th day, control 42.8) was 100% and the “Average tumor weight” value ([10]; 27th day after transplantation, control 1.43 ± 0.08, in g (unit assumed)) was 0.18 ± 0.03. For the same compound, the “Percentage surviving at judgement (%)” value ([10]; 35th day, control 100) was 100%, the “Average tumor weight” value ([11]; 27th day after transplantation, control 2.95 ± 1.36, in g (unit assumed)) was 0.21 ± 0.03 and the “Percentage surviving at judgement (%)” value ([11]; 35th day, control 71.4) was 100%. The “Average tumor weight” value ([12]; 27th day after transplantation, control 0.99 ± 0.81, in g (unit assumed)) was 0.25 ± 0.02, the “Percentage surviving at judgement (%)” value ([12]; 35th day, control 85.7) was 100% and the “Average tumor weight” value ([13]; 27th day after transplantation, control 1.83 ± 0.85, in g (unit assumed)) was 0.36 ± 0.02. The “Percentage surviving at judgement (%)” value ([13]; 35th day, control 85.7) was 100%, the “Average tumor weight” value ([14]; 27th day after transplantation, control 1.86 ± 0.64, in g (unit assumed)) was 0.35 ± 0.09 and the “Percentage surviving at judgement (%)” value ([14]; 35th day, control 85.7) was 100%.

With `CC(C)=CCc1cc(/C=C/C(=O)O)cc(CC=C(C)C)c1O` [compound 4, magnesium salt of 3-[4-hydroxy-3,5-bis(3-methyl-2-butenyl)phenyl]-2-propenoic acid] the Average day surviving [1, 15] was 34.9 ± 0.3 days, the “Prolongation percentage of life (T/C %)” value [1, 15] was 124.2% and the “Number surviving after 40 days” value [1, 15] was 3. The Average day surviving [1, 16] was 35.7 ± 0.4 days, the “Prolongation percentage of life (T/C %)” value [1, 16] was 127.0% and the “Number surviving after 40 days” value [1, 16] was 5. For the same compound, the Average day surviving [1, 17] was 37.5 ± 0.2 days, the “Prolongation percentage of life (T/C %)” value [1, 18] was 133.5% and the “Number surviving after 40 days” value [1, 17] was 7. The Average day surviving [1, 19] was over 40.0 days, the “Prolongation percentage of life (T/C %)” value [1, 20] was 142.3% and the “Number surviving after 40 days” value [1, 19] was 10.

For `O=c1c(O)c(-c2ccc(O)c(O)c2)oc2cc(O)cc(O)c12` [quercetin], the “antitumor activity on human malignant tumors” value [2] is given as “exerted an antitumor activity”.

For `CC(C)=CCc1cc(/C=C/C(=O)O)cc(CC=C(C)C)c1O` [compound 1, 3-[4-hydroxy-3,5-bis(3-methyl-2-butenyl)phenyl]-2-propenoic acid], the Average day surviving [1, 15] was 33.5 ± 0.6 days, the “Prolongation percentage of life (T/C %)” value [1, 15] was 119.2% and the “Number surviving after 40 days” value [1, 15] was 3. The Average day surviving [1, 16] was 35.0 ± 0.9 days, the “Prolongation percentage of life (T/C %)” value [1, 16] was 124.6% and the “Number surviving after 40 days” value [1, 16] was 5. The Average day surviving [1, 17] was 37.3 ± 0.4 days, the “Prolongation percentage of life (T/C %)” value [1, 18] was 132.7% and the “Number surviving after 40 days” value [1, 17] was 7. For the same compound, the Average day surviving [1, 19] was 39.8 ± 0.1 days, the “Prolongation percentage of life (T/C %)” value [1, 20] was 141.6% and the “Number surviving after 40 days” value [1, 19] was 9.

For `CC(C)=CCc1cc(/C=C/C(=O)O)cc(CC=C(C)C)c1O` [compound 5, potassium salt of 3-[4-hydroxy-3,5-bis(3-methyl-2-butenyl)phenyl]-2-propenoic acid], the Average day surviving [1, 15] was 32.6 ± 0.6 days, the “Prolongation percentage of life (T/C %)” value [1, 15] was 116.0% and the “Number surviving after 40 days” value [1, 15] was 2. For the same compound, the Average day surviving [1, 16] was 36.1 ± 0.5 days, the “Prolongation percentage of life (T/C %)” value [1, 16] was 128.5% and the “Number surviving after 40 days” value [1, 16] was 6. The Average day surviving [1, 17] was 38.2 ± 0.4 days, the “Prolongation percentage of life (T/C %)” value [1, 18] was 135.9% and the “Number surviving after 40 days” value [1, 17] was 8. The Average day surviving [1, 19] was 39.2 ± 0.3 days, the “Prolongation percentage of life (T/C %)” value [1, 20] was 139.5% and the “Number surviving after 40 days” value [1, 19] was 9.
